What was measured:
[1] = system: locally advanced breast cancers; conditions: weekly doxorubicin 14 mg/m^2 for 16 weeks, n=20; cited from earlier work
cT3-T4 breast tumors = assay: Independent dataset: four cycles of pre-operative single agent docetaxel, pathological response; assay type: in vivo, human
Description: Next, we applied the 90-supergene panels for pathological response to the original cohort using unsupervised hierarchical clustering, and found, expectedly, the predictors to be highly accurate; the division yielded groups with different PFS, though not statistically significant (Table 1). To validate the pathological response signatures further, we applied them, using SVM, in an independent set of 18 patients treated with four cycles of neoadjuvant three-weekly single agent docetaxel prior to surgery, who had tumor biopsy before and 3 weeks after one chemotherapy cycle. Pathological response definition was similar to our original cohort. Consistent with the findings for the PFS predictors, T2 outperformed T1 signatures, with the AUC of ROC being 0.631 (95% CI 0.350-0.912) for T2 compared to 0.462 (95% CI 0.190-0.733) and 0.446 (95% Cl 0.161-0.731) for TΔ and T1 respectively. T2 signatures accurately identified 77% of poor pathological responders, compared to 54% for both T1 and TΔ (FIG. 2c-d).
An independent dataset comprising of 18 breast cancer patients treated with pre-operative chemotherapy followed by surgery as part of another clinical protocol at our institution was used to validate the gene expression signatures that predict for pathological response. Validation was performed using SVM. In brief, patients from this independent dataset had cT3-T4 breast tumors and were treated with four cycles of pre-operative single agent docetaxel every three weeks. […] Patients underwent lumpectomy or mastectomy and axillary clearance after chemotherapy, and were classified as good (5/18) and poor (13/18) pathological responders using the same criteria as described in our primary cohort. This dataset was not used to validate the PFS signatures as the median follow-up was short at 18.5 months, and only 5/18 had progressed at the time of analysis.

[2] = four cycles of docetaxel every three weeks, then surgery, n=18

Compound | median relapse-free survival [1] | patients relapsed [1] | good pathological responders (cT3-T4 breast tumors; [2]) | poor pathological responders (cT3-T4 breast tumors; [2]) | patients progressed at the time of analysis (cT3-T4 breast tumors; median follow-up 18.5 months)
COc1cccc2c1C(=O)c1c(O)c3c(c(O)c1C2=O)C[C@@](O)(C(=O)CO)C[C@@H]3O[C@H]1C[C@H](N)[C@H](O)[C@H](C)O1 [doxorubicin] | 25 months | 12/20 |  |  | 
CC(=O)O[C@@]12CO[C@@H]1C[C@H](O)[C@@]1(C)C(=O)[C@H](O)C3=C(C)[C@@H](OC(=O)[C@H](O)[C@@H](NC(=O)OC(C)(C)C)c4ccccc4)C[C@@](O)([C@@H](OC(=O)c4ccccc4)[C@H]21)C3(C)C [docetaxel] |  |  | 5/18 | 13/18 | 5/18

Source: patent US20110104702A1, “Methods for Predicting Tumor Response to Chemotherapy and Selection of Tumor Treatment” (NATIONAL UNIVERSITY HOSPITAL, priority 2008, published 2011)
